What was measured:
Assay in all cases: relative viability (nuclei count vs DMSO), 5 days (fraction); higher = more cells survive
NCI-H2228 = tested on: NCI-H2228
Procedure, shortened: (§1)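 Lung cancer cell lines in 1536-well plates got either a single drug or a fixed anchor-drug dose together with five library-drug doses (not always all listed) in √10 steps, by pin tool, on the day after seeding. Nuclei were counted after 5 days, and relative viability is the treated-to-vehicle ratio of nuclei counts. Values are medians of duplicate plates.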

SK-LU-1 = tested on: SK-LU-1
Procedure, shortened: as §1

NCI-H647 = tested on: NCI-H647
Procedure, shortened: as §1

NCI-H1355 = tested on: NCI-H1355
Procedure, shortened: as §1

LOU-NH91 = tested on: LOU-NH91
Procedure, shortened: as §1

HARA = tested on: HARA
Procedure, shortened: as §1

NCI-H2170 = tested on: NCI-H2170
Procedure, shortened: as §1

NCI-H1792 = tested on: NCI-H1792
Procedure, shortened: as §1

NCI-H1437 = tested on: NCI-H1437
Procedure, shortened: as §1

BEN = tested on: BEN
Procedure, shortened: as §1

NCI-H2009 = tested on: NCI-H2009
Procedure, shortened: as §1

NCI-H2405 = tested on: NCI-H2405
Procedure, shortened: as §1

LC-2-ad = tested on: LC-2-ad
Procedure, shortened: as §1

EKVX = tested on: EKVX
Procedure, shortened: as §1

NCI-H2087 = tested on: NCI-H2087
Procedure, shortened: as §1

NCI-H1734 = tested on: NCI-H1734
Procedure, shortened: as §1

NCI-H2342 = tested on: NCI-H2342
Procedure, shortened: as §1

SK-MES-1 = tested on: SK-MES-1
Procedure, shortened: as §1

HCC-366 = tested on: HCC-366
Procedure, shortened: as §1

HCC-827 = tested on: HCC-827
Procedure, shortened: as §1

NCI-H1395 = tested on: NCI-H1395
Procedure, shortened: as §1

NCI-H596 = tested on: NCI-H596
Procedure, shortened: as §1

NCI-H661 = tested on: NCI-H661
Procedure, shortened: as §1

`CC1(C)CCC(c2ccc(Cl)cc2)=C(CN2CCN(c3ccc(C(=O)NS(=O)(=O)c4ccc(N[C@H](CCN5CCOCC5)CSc5ccccc5)c(S(=O)(=O)C(F)(F)F)c4)cc3)CC2)C1` [Navitoclax] + Nc1nc2[nH]cc(CCc3ccc(C(=O)N[C@@H](CCC(=O)O)C(=O)O)cc3)c2c(=O)[nH]1 [Pemetrexed] (partner 0.2 µM) was tested, and the relative viability (NCI-H2228; first compound 0.005 µM) was 0.314, the relative viability (NCI-H2228; first compound 0.01581 µM) was 0.306 and the relative viability (NCI-H2228; first compound 0.1581 µM) was 0.336. For the same compound, the relative viability (NCI-H2228; first compound 0.5 µM) was 0.31, the relative viability (SK-LU-1; first compound 0.005 µM) was 0.945 and the relative viability (SK-LU-1; first compound 0.01581 µM) was 1.01. The relative viability (SK-LU-1; first compound 0.05 µM) was 0.967, the relative viability (SK-LU-1; first compound 0.1581 µM) was 0.947 and the relative viability (SK-LU-1; first compound 0.5 µM) was 0.819. The relative viability (NCI-H647; first compound 0.005 µM) was 0.166, the relative viability (NCI-H647; first compound 0.01581 µM) was 0.175 and the relative viability (NCI-H647; first compound 0.05 µM) was 0.163. It also gave a relative viability (NCI-H647; first compound 0.1581 µM) of 0.14, a relative viability (NCI-H647; first compound 0.5 µM) of 0.128 and a relative viability (NCI-H1355; first compound 0.005 µM) of 0.998. For the same compound, the relative viability (NCI-H1355; first compound 0.01581 µM) was 1.05, the relative viability (NCI-H1355; first compound 0.05 µM) was 1.11 and the relative viability (NCI-H1355; first compound 0.1581 µM) was 1.03. It also gave a relative viability (NCI-H1355; first compound 0.5 µM) of 1.07, a relative viability (LOU-NH91; first compound 0.005 µM) of 0.308 and a relative viability (LOU-NH91; first compound 0.01581 µM) of 0.304. The relative viability (LOU-NH91; first compound 0.05 µM) was 0.26, the relative viability (LOU-NH91; first compound 0.1581 µM) was 0.285 and the relative viability (LOU-NH91; first compound 0.5 µM) was 0.219. It also gave a relative viability (HARA; first compound 0.005 µM) of 0.189, a relative viability (HARA; first compound 0.01581 µM) of 0.232 and a relative viability (HARA; first compound 0.05 µM) of 0.255. It also gave a relative viability (HARA; first compound 0.1581 µM) of 0.236, a relative viability (HARA; first compound 0.5 µM) of 0.218 and a relative viability (NCI-H2170; first compound 0.005 µM) of 0.292. The relative viability (NCI-H2170; first compound 0.01581 µM) was 0.272, the relative viability (NCI-H2170; first compound 0.05 µM) was 0.273 and the relative viability (NCI-H2170; first compound 0.1581 µM) was 0.266. It also gave a relative viability (NCI-H2170; first compound 0.5 µM) of 0.254, a relative viability (NCI-H1792; first compound 0.005 µM) of 0.917 and a relative viability (NCI-H1792; first compound 0.01581 µM) of 0.82. The relative viability (NCI-H1792; first compound 0.1581 µM) was 0.716, the relative viability (NCI-H1792; first compound 0.5 µM) was 0.738 and the relative viability (NCI-H1437; first compound 0.005 µM) was 0.287. It also gave a relative viability (NCI-H1437; first compound 0.01581 µM) of 0.336, a relative viability (NCI-H1437; first compound 0.05 µM) of 0.282 and a relative viability (NCI-H1437; first compound 0.1581 µM) of 0.311. For the same compound, the relative viability (NCI-H1437; first compound 0.5 µM) was 0.356, the relative viability (BEN; first compound 0.005 µM) was 0.781 and the relative viability (BEN; first compound 0.01581 µM) was 0.841. For the same compound, the relative viability (BEN; first compound 0.05 µM) was 0.74, the relative viability (BEN; first compound 0.1581 µM) was 0.803 and the relative viability (BEN; first compound 0.5 µM) was 0.418. The relative viability (NCI-H2009; first compound 0.005 µM) was 0.997, the relative viability (NCI-H2009; first compound 0.01581 µM) was 1.03 and the relative viability (NCI-H2009; first compound 0.05 µM) was 1.03. It also gave a relative viability (NCI-H2009; first compound 0.1581 µM) of 1.04, a relative viability (NCI-H2009; first compound 0.5 µM) of 1.01 and a relative viability (NCI-H2405; first compound 0.005 µM) of 1.02. For the same compound, the relative viability (NCI-H2405; first compound 0.01581 µM) was 1.07, the relative viability (NCI-H2405; first compound 0.05 µM) was 1.11 and the relative viability (NCI-H2405; first compound 0.1581 µM) was 0.994. The relative viability (NCI-H2405; first compound 0.5 µM) was 0.896, the relative viability (LC-2-ad; first compound 0.005 µM) was 0.268 and the relative viability (LC-2-ad; first compound 0.01581 µM) was 0.263. It also gave a relative viability (LC-2-ad; first compound 0.05 µM) of 0.284, a relative viability (LC-2-ad; first compound 0.1581 µM) of 0.295 and a relative viability (LC-2-ad; first compound 0.5 µM) of 0.275. The relative viability (EKVX; first compound 0.005 µM) was 0.433, the relative viability (EKVX; first compound 0.01581 µM) was 0.389 and the relative viability (EKVX; first compound 0.05 µM) was 0.4. For the same compound, the relative viability (EKVX; first compound 0.1581 µM) was 0.387, the relative viability (EKVX; first compound 0.5 µM) was 0.366 and the relative viability (NCI-H2087; first compound 0.005 µM) was 0.689. The relative viability (NCI-H2087; first compound 0.01581 µM) was 0.697, the relative viability (NCI-H2087; first compound 0.1581 µM) was 0.686 and the relative viability (NCI-H2087; first compound 0.5 µM) was 0.675. It also gave a relative viability (NCI-H1734; first compound 0.005 µM) of 0.394, a relative viability (NCI-H1734; first compound 0.01581 µM) of 0.421 and a relative viability (NCI-H1734; first compound 0.1581 µM) of 0.367. It also gave a relative viability (NCI-H1734; first compound 0.5 µM) of 0.381, a relative viability (NCI-H2342; first compound 0.005 µM) of 0.818 and a relative viability (NCI-H2342; first compound 0.01581 µM) of 0.81. For the same compound, the relative viability (NCI-H2342; first compound 0.05 µM) was 0.805, the relative viability (NCI-H2342; first compound 0.1581 µM) was 0.719 and the relative viability (NCI-H2342; first compound 0.5 µM) was 0.763. For the same compound, the relative viability (SK-MES-1; first compound 0.005 µM) was 0.913, the relative viability (SK-MES-1; first compound 0.01581 µM) was 1.05 and the relative viability (SK-MES-1; first compound 0.05 µM) was 1.03. It also gave a relative viability (SK-MES-1; first compound 0.1581 µM) of 0.884, a relative viability (SK-MES-1; first compound 0.5 µM) of 0.927 and a relative viability (HCC-366; first compound 0.005 µM) of 0.136. The relative viability (HCC-366; first compound 0.01581 µM) was 0.167, the relative viability (HCC-366; first compound 0.1581 µM) was 0.175 and the relative viability (HCC-366; first compound 0.5 µM) was 0.145. The relative viability (HCC-827; first compound 0.005 µM) was 0.27, the relative viability (HCC-827; first compound 0.01581 µM) was 0.261 and the relative viability (HCC-827; first compound 0.05 µM) was 0.252. For the same compound, the relative viability (HCC-827; first compound 0.1581 µM) was 0.23, the relative viability (HCC-827; first compound 0.5 µM) was 0.258 and the relative viability (NCI-H1395; first compound 0.005 µM) was 0.763. It also gave a relative viability (NCI-H1395; first compound 0.01581 µM) of 0.853, a relative viability (NCI-H1395; first compound 0.05 µM) of 0.94 and a relative viability (NCI-H1395; first compound 0.1581 µM) of 0.86. For the same compound, the relative viability (NCI-H1395; first compound 0.5 µM) was 0.913, the relative viability (NCI-H596; first compound 0.005 µM) was 0.418 and the relative viability (NCI-H596; first compound 0.01581 µM) was 0.459. It also gave a relative viability (NCI-H596; first compound 0.05 µM) of 0.5, a relative viability (NCI-H596; first compound 0.1581 µM) of 0.439 and a relative viability (NCI-H596; first compound 0.5 µM) of 0.39. For the same compound, the relative viability (NCI-H661; first compound 0.005 µM) was 0.936, the relative viability (NCI-H661; first compound 0.01581 µM) was 0.958 and the relative viability (NCI-H661; first compound 0.05 µM) was 0.9. For the same compound, the relative viability (NCI-H661; first compound 0.1581 µM) was 0.883 and the relative viability (NCI-H661; first compound 0.5 µM) was 0.876.

From the supplement of paper PMC10307832
